Results as given in US4528299A, “1-(2,3-Dimethyl-4-methoxyphenyl)-2-methyl-3-(1-pyrrolidinyl)-1-propanone and anti-spastic use thereof” (priority 1982, dated 1985).

Experiments:
[1] = tested on: anemic decerebrate rigidity (α-rigidity); assay: Effect on anemic decerebrate rigidity (α-rigidity), EMG activity of M. triceps brachii, cumulative i.v. injection; assay type: in vivo, Male rats of Wistar strain; settings: for ED50: Rattus norvegicus, iv, 5 min, cumulative 1.25-20 mg/kg, dose reducing EMG activity to 50%; for ED50 / α-Rigidity reducing effect Duration: rats; for α-Rigidity reducing effect Duration: time from disappearance to reappearance of EMG activities after total dose of 20 mg/kg, i.v.
Procedure: Anemic decerebrate rigidity is known to be a model showing the abnormal hypertonia. This model was prepared according to the method of Fukuda et al [cf. Japan. J. Pharmacol. 24, 810-813 (1974)]. Male rats of Wistar strain, weighing 250 to 350 g, were used in groups of 5 animals. Under the ether anesthesia, the animal was fixed on its back. After the oesophagus and bilateral common carotid arteries were exposed, the trachea was cannulated and the oesophagus was cut between two placed ligatures. The occipital bone was exposed. The common carotid arteries were ligated bilaterally and a trephined opening was made in the central part of the bone. The dura matter was cut along the basilar artery, and the artery was cauterized with a coagulator of bipolar pincette electrodes (Micro-ID made by Mizuhoika Kogyo Co., Ltd., Japan). After the operation, anesthesia was discontinued. The marked rigidity occurred in the forelimbs within 15 minutes after the operation.
The rat was placed on its back and the hindlimbs fixed. Electromyogram (EMG) was recorded by a coaxial needle electrode inserted into the Musculus triceps brachii of the forelimbs. Reference electrode was inserted into the hindlimb muscle. EMG activities obtained from the muscle were amplified, transformed into the square wave pulses with the window discriminator, and fed into integrator, the out-put of which was amplified and recorded by an inkwriting recorder.
The test compounds were dissolved in distilled water. After the EMG activities had remained stable over 15 to 30 minutes, the test compounds were cumulatively injected at a 5-minute interval into a cannulated femoral vein. The doses administered were 1.25 mg/kg, 2.5 mg/kg, 5.0 mg/kg, 10 mg/kg and finally 20 mg/kg. The EMG activities were expressed as a percentage of the pre-injection value, and the maximal effect within 5 minutes was measured in each dose. The median effective dose (ED50), the dose which reduced the EMG activity to 50%, was calculated by the method of Litchfield and Wilcoxon. In addition, the time from disappearance to reappearance of EMG activities after total dose of 20 mg/kg was expressed as the duration of the effect.

[2] = tested on: muscle relaxation; assay: Muscle relaxant effect (Traction test); assay type: in vivo, Male mice of STD-ddY strain; settings: for ED50: Mus musculus, ip, 0.25 h, i.p., mice, 15 minutes after administration
Procedure: Traction test was used as an index of the muscle relaxation. Male mice of STD-ddY strain, weighing 20 to 25 g, were used in groups of 5 animals. The test compounds, suspended or dissolved in 0.5% tragacanth solution, were intraperitoneally administered at a volume of 0.1 ml/10 g body weight, and 15 minutes after the administration the muscle relaxant effects were examined according to the method of Courvoisier et al (cf. "Psychotropic Drugs", ed. by Garattini, S. and Ghetti, V., Elsevier Pub. Co., Amsterdam, 1957, page 373). The animal was suspended by their forelimbs on a horizontal metal bar with a diameter of 2 mm. The rod was 18 cm above the floor. The animals which could not put their hindlimb on the rod within 5 seconds were judged as a positive (all-or-nothing way). The median effective dose (ED50), the dose which caused the positive effects in 50% of animals, were calculated according to the method of Litchfield and Wilcoxon.

[3] = Acute toxicity; assay type: in vivo; settings: mouse, in vivo, ip, mice; for LD50 at 168 h: 7 days observation; for selectivity ratio: (LD50)/(ED50 of Muscle relaxant effect), i.p., read-out: Safety index
Procedure: (§1) Male mice of STD-ddY strain, weighing 23 to 25 g, were used in groups of 10 animals. The test compounds, suspended or dissolved in 0.5% tragacanth solution, were intraperitoneally administered at a volume of 0.1 ml/10 g body weight. After the administration, the mice were kept for 7 days, and observed for death. The median lethal dose (LD50), the dose which caused death in 50% of animals, were calculated according to the method of Litchfield and Wilcoxon.

[4] = tested on: mice; assay: Acute toxicity; assay type: in vivo
Procedure: as §1

[5] = tested on: anemic decerebrate rigidity (α-rigidity); assay: Effect on anemic decerebrate rigidity (α-rigidity), EMG activity of M. triceps brachii, cumulative i.v. injection; assay type: in vivo, Male rats of Wistar strain

In the case of `COc1ccc(C(=O)C(C)CN2CCCC2)c(C)c1C` (stereo not drawn) [A, 1-(2,3-dimethyl-4-methoxyphenyl)-2-methyl-3-(1-pyrrolidinyl)-1-propanone], the ED50 [1] is reported as 2.6 mg/kg, the “α-Rigidity reducing effect Duration” value [1] is reported as 16.3 min and the “duration of action relative to Compound No. 1” value ([1]; vs Compound No. 1) is reported as “about 23 times”. For the same molecule, the “potency in the reducing activity of α-rigidity relative to Compound No. 1” value ([1]; vs Compound No. 1) was “about 4.7 times”, the “duration of action relative to Compound No. 2” value ([1]; vs Compound No. 2) was “about 5.8 times” and the “potency in the reducing activity of α-rigidity relative to Compound No. 2” value ([1]; vs Compound No. 2) was “about 4.9 times”. The “potency in α-rigidity reducing activity relative to Compound No. 3” value ([1]; vs Compound No. 3) was “about 7.8 times”, the “potency in α-rigidity reducing activity relative to Compound No. 4” value ([1]; vs Compound No. 4) was “about 2.7 times” and the “duration of action relative to Compound No. 5” value ([1]; vs Compound No. 5) was “about 1.9 times”. The “potency in the reducing activity of α-rigidity relative to Compound No. 5” value ([1]; vs Compound No. 5) was “about 6 times”, the “potency in the reducing activity of α-rigidity relative to Compound No. 6” value ([1]; vs Compound No. 6) was “about 2.8 times” and the “duration of action relative to Compound No. 6” value ([1]; vs Compound No. 6, in words) was “somewhat longer”. For the same molecule, the “potency in the reducing activity of α-rigidity relative to Compound No. 7” value ([1]; vs Compound No. 7) was “about 6.6 times”, the “potency in the reducing activity of α-rigidity relative to Compound No. 8” value ([1]; vs Compound No. 8) was “about 3.7 times” and the “pharmacological activities relative to known analogous compound Nos. 1 to 5” value ([1]; vs compound Nos. 1 to 5, overall conclusion from Tests 1-3) was “far greater”. For the same molecule, the “pharmacological activities relative to novel analogous compound Nos. 6 to 8” value ([1]; vs compound Nos. 6 to 8, overall conclusion from Tests 1-3) was “fairly or far greater”, the ED50 [2] was 68.5 mg/kg and the “potency in muscle relaxant activity relative to Compound No. 1” value ([2]; vs Compound No. 1) was “about 2.3 times”. For the same molecule, the “potency in muscle relaxant activity relative to Compound No. 3” value ([2]; vs Compound No. 3) was roughly 2.3 times, the “potency in muscle relaxant activity relative to Compound No. 4” value ([2]; vs Compound No. 4) was roughly 1.8 times and the LD50 at 168 h [3] was 161 mg/kg. For the same molecule, the selectivity ratio [3] was 2.35, the “safety index relative to Compound No. 1” value ([4]; vs Compound No. 1) was “about 1.8 times” and the “safety index relative to Compound No. 3” value ([4]; vs Compound No. 3) was “about 1.5 times”. The “safety index relative to Compound No. 6” value ([4]; vs Compound No. 6, in words) was “higher safety index” and the “safety index relative to Compound No. 8” value ([4]; vs Compound No. 8, in words) was “higher safety index”.
For `Cc1ccc(C(=O)C(C)CN2CCCCC2)cc1` (stereo not drawn) [Compound 1, 2-methyl-1-p-methylphenyl-3-piperidino-1-propanone], the ED50 [1] was 12.3 mg/kg, the “α-Rigidity reducing effect Duration” value [1] was 0.7 min and the ED50 [2] was 156 mg/kg. For the same molecule, the LD50 at 168 h [3] was 210 mg/kg and the selectivity ratio [3] was 1.34.
In the case of `CCc1ccc(C(=O)C(C)CN2CCCCC2)cc1` (stereo not drawn) [Compound 2], the ED50 [1] is reported as 12.7 mg/kg, the “α-Rigidity reducing effect Duration” value [1] is reported as 2.8 min and the ED50 [2] is reported as 64.2 mg/kg. It also gave an LD50 at 168 h [3] of 129 mg/kg and a selectivity ratio [3] of 2.01.
In the case of `COc1ccc(C(=O)C(C)CN2CCCCC2)cc1OC` (stereo not drawn) [Compound 3], the ED50 [1] is reported as 20.2 mg/kg, the ED50 [2] is reported as 158 mg/kg and the LD50 at 168 h [3] is reported as 247 mg/kg. The selectivity ratio [3] was 1.56.
Molecule `Cc1cc(C)c(C(=O)C(C)CN2CCCCC2)c(C)c1` (stereo not drawn) [Compound 4] has an ED50 [1] of 6.9 mg/kg, an ED50 [2] of 123 mg/kg and an LD50 at 168 h [3] of 156 mg/kg. The selectivity ratio [3] was 1.27 and the toxicity in rats [5] was “high toxicity in rats”.
With `Cc1ccc(C(=O)C(C)CN2CCCCC2)cc1C` (stereo not drawn) [Compound 5] the ED50 [1] was 15.6 mg/kg, the “α-Rigidity reducing effect Duration” value [1] was 8.8 min and the ED50 [2] was 59.3 mg/kg. It also gave an LD50 at 168 h [3] of 140 mg/kg and a selectivity ratio [3] of 2.36.
In the case of `COc1ccc(C(=O)C(C)CN2CCCCC2)c(C)c1C` (stereo not drawn) [Compound 6], the ED50 [1] is reported as 7.3 mg/kg, the “α-Rigidity reducing effect Duration” value [1] is reported as 11.4 min and the ED50 [2] is reported as 77.7 mg/kg. It also gave an LD50 at 168 h [3] of 145 mg/kg and a selectivity ratio [3] of 1.87.
Work on `COc1ccc(C(=O)CCN2CCCC2)c(C)c1C` [Compound 7] yielded an ED50 [1] of 17.2 mg/kg, an ED50 [2] of 87.1 mg/kg and an LD50 at 168 h [3] of 174 mg/kg. It also gave a selectivity ratio [3] of 2.
With `CCOc1ccc(C(=O)C(C)CN2CCCC2)c(C)c1C` (stereo not drawn) [Compound 8] the ED50 [1] was 9.6 mg/kg, the “α-Rigidity reducing effect Duration” value [1] was 14.8 min and the ED50 [2] was 75.5 mg/kg. For the same molecule, the LD50 at 168 h [3] was 134 mg/kg and the selectivity ratio [3] was 1.78.
In the case of `COc1ccc(C(=O)C(C)CN2CCCC2)c(C)c1C` (stereo not drawn) [compound (I), 1-(2,3-dimethyl-4-methoxyphenyl)-2-methyl-3-(1-pyrrolidinyl)-1-propanone], the “central muscle relaxant activities in comparison with the known compounds” value ([2]; overall conclusion, in words) is reported as “highly improved, excellent” and the toxicity ([4]; overall conclusion, in words) is reported as “low toxicity”.
